Columns and labels:
[1] = tested on: ibrutinib-resistant variant of Pfeiffer ("Ibrutinib-R"); assay: cell proliferation, ibrutinib-resistant Pfeiffer; format: cell-based; conditions: Homo sapiens, pools of resistant cells
Protocol: (§1) This activity of ASN002 was assessed using a diffuse large B-cell lymphoma (DLBCL) cell line, Pfeiffer (“Parental”); and an ibrutinib-resistant variant of the same cell line (“Ibrutinib-R”), which was developed by growing the cells in the presence of increasing concentrations of ibrutinib. Pools of ibrutinib-resistant cells were tested in this study. The drug idelalisib (which was approved by the FDA in […] for the treatment of B-cell blood cancers) was used for comparison as a reference compound. The data are set forth in Table A (IC50 is the half maximal inhibitory concentration).

[2] = tested on: Pfeiffer ("Parental") DLBCL cell line; assay: cell proliferation, Pfeiffer parental; format: cell-based; conditions: Homo sapiens
Protocol: as §1

[3] = tested on: multiple myeloma model derived from H929 cell line; assay: mouse model of multiple myeloma (H929); format: in vivo; conditions: H929 cell line (FIG. 5)
[4] = tested on: DLBCL xenograft derived from SU-DHL-6 cell line; assay: DLBCL xenograft mouse model (SU-DHL-6); format: in vivo; conditions: SU-DHL-6 cell line (FIG. 4)
[5] = tested on: human erythroleukemia model derived from HEL cell line; assay: mouse model of human erythroleukemia (HEL); format: in vivo; conditions: HEL cell line (FIG. 6)
MDAMB453 = assay: antiproliferative activity, solid tumor cell line; format: cell-based; conditions: Homo sapiens, MDA-MB-453; MDAMB453, Breast
Protocol: (§2) Example 2. The Anti-Cancer Activity of ASN002 was Also Evaluated in Many Solid Tumor Cell Lines.

T24 = assay: antiproliferative activity, solid tumor cell line; format: cell-based; conditions: Homo sapiens, T-24; T24, Bladder
Protocol: as §2

SKMEL2 = assay: antiproliferative activity, solid tumor cell line; format: cell-based; conditions: Homo sapiens, SK-MEL-2; SKMEL2, Melanoma
Protocol: as §2

HeLa = assay: antiproliferative activity, solid tumor cell line; format: cell-based; conditions: Homo sapiens, Cervical
Protocol: as §2

HCC1954 = assay: antiproliferative activity, solid tumor cell line; format: cell-based; conditions: Homo sapiens; HCC1954, Breast
Protocol: as §2

HT1376 = assay: antiproliferative activity, solid tumor cell line; format: cell-based; conditions: Homo sapiens, HT-1376; HT1376, Bladder
Protocol: as §2

HCC1806 = assay: antiproliferative activity, solid tumor cell line; format: cell-based; conditions: Homo sapiens; HCC1806, Breast
Protocol: as §2

SCaBER = assay: antiproliferative activity, solid tumor cell line; format: cell-based; conditions: Homo sapiens, Bladder
Protocol: as §2

H1975 = assay: antiproliferative activity, solid tumor cell line; format: cell-based; conditions: Homo sapiens, NCI-H1975; H1975, Lung
Protocol: as §2

HUG1N = assay: antiproliferative activity, solid tumor cell line; format: cell-based; conditions: Gasrtic
Protocol: as §2

A375 = assay: antiproliferative activity, solid tumor cell line; format: cell-based; conditions: Homo sapiens, A-375; A375, Melanoma
Protocol: as §2

MIAPACA2 = assay: antiproliferative activity, solid tumor cell line; format: cell-based; conditions: Homo sapiens, MIA PaCa-2; MIAPACA2, Pancreas
Protocol: as §2

Colo205 = assay: antiproliferative activity, solid tumor cell line; format: cell-based; conditions: Homo sapiens, COLO 205; Colo205, Colon
Protocol: as §2

SW480 = assay: antiproliferative activity, solid tumor cell line; format: cell-based; conditions: Homo sapiens; SW480, Colon
Protocol: as §2

H1299 = assay: antiproliferative activity, solid tumor cell line; format: cell-based; conditions: Homo sapiens, NCI-H1299; H1299, Lung
Protocol: as §2

HT29 = assay: antiproliferative activity, solid tumor cell line; format: cell-based; conditions: Homo sapiens, HT-29; HT29, Colon
Protocol: as §2

Y79 = assay: antiproliferative activity, solid tumor cell line; format: cell-based; conditions: Homo sapiens; Y79, Retiblastoma
Protocol: as §2

MDAMB361 = assay: antiproliferative activity, solid tumor cell line; format: cell-based; conditions: Homo sapiens, MDA-MB-361; MDAMB361, Breast
Protocol: as §2

SKHEP1 = assay: antiproliferative activity, solid tumor cell line; format: cell-based; conditions: Homo sapiens, SK-HEP1; SKHEP1, Endothelial
Protocol: as §2

Hec1A = assay: antiproliferative activity, solid tumor cell line; format: cell-based; conditions: Homo sapiens, HEC-1-A, Endometrial
Protocol: as §2

SKOV3 = assay: antiproliferative activity, solid tumor cell line; format: cell-based; conditions: Homo sapiens, SK-OV-3; SKOV3, Ovarian
Protocol: as §2

A549 = assay: antiproliferative activity, solid tumor cell line; format: cell-based; conditions: Homo sapiens; A549, Lung
Protocol: as §2

PC3 = assay: antiproliferative activity, solid tumor cell line; format: cell-based; conditions: Homo sapiens, PC-3; PC3, Prostate
Protocol: as §2

HCT116 = assay: antiproliferative activity, solid tumor cell line; format: cell-based; conditions: Homo sapiens, HCT-116; HCT116, Colon
Protocol: as §2

MFM-223 = assay: antiproliferative activity, solid tumor cell line; format: cell-based; conditions: Homo sapiens; MFM-223, Breast
Protocol: as §2

Caki1 = assay: antiproliferative activity, solid tumor cell line; format: cell-based; conditions: Homo sapiens, CAKI-1; Caki1, Kidney
Protocol: as §2

BxPC3 = assay: antiproliferative activity, solid tumor cell line; format: cell-based; conditions: Homo sapiens, BXPC-3; BxPC3, Pancreas
Protocol: as §2

C33A = assay: antiproliferative activity, solid tumor cell line; format: cell-based; conditions: Homo sapiens, C-33-A, Cervical
Protocol: as §2

JEG3 = assay: antiproliferative activity, solid tumor cell line; format: cell-based; conditions: Homo sapiens, JEG-3; JEG3, Placenta
Protocol: as §2

DU145 = assay: antiproliferative activity, solid tumor cell line; format: cell-based; conditions: Homo sapiens, DU-145; DU145, Prostate
Protocol: as §2

BT20 = assay: antiproliferative activity, solid tumor cell line; format: cell-based; conditions: Homo sapiens, BT-20; BT20, Breast
Protocol: as §2

HT1197 = assay: antiproliferative activity, solid tumor cell line; format: cell-based; conditions: Homo sapiens; HT1197, Bladder
Protocol: as §2

KE39 = assay: antiproliferative activity, solid tumor cell line; format: cell-based; conditions: KE39, Gastric
Protocol: as §2

SW1990 = assay: antiproliferative activity, solid tumor cell line; format: cell-based; conditions: Homo sapiens; SW1990, Pancreas
Protocol: as §2

HCC1937 = assay: antiproliferative activity, solid tumor cell line; format: cell-based; conditions: Homo sapiens; HCC1937, Breast
Protocol: as §2

5637 = assay: antiproliferative activity, solid tumor cell line; format: cell-based; conditions: 5637, Bladder
Protocol: as §2

H460 = assay: antiproliferative activity, solid tumor cell line; format: cell-based; conditions: Homo sapiens, NCI-H460; H460, Lung
Protocol: as §2

SKMEL28 = assay: antiproliferative activity, solid tumor cell line; format: cell-based; conditions: Homo sapiens, SK-MEL-28; SKMEL28, Melanoma
Protocol: as §2

MDA-MB-231 = assay: antiproliferative activity, solid tumor cell line; format: cell-based; conditions: Homo sapiens; MDA-MB-231, Breast
Protocol: as §2

LNCaP = assay: antiproliferative activity, solid tumor cell line; format: cell-based; conditions: Homo sapiens, Prostate
Protocol: as §2

CAOV3 = assay: antiproliferative activity, solid tumor cell line; format: cell-based; conditions: Homo sapiens, Caov-3; CAOV3, Ovary
Protocol: as §2

UMUC3 = assay: antiproliferative activity, solid tumor cell line; format: cell-based; conditions: Homo sapiens; UMUC3, Bladder
Protocol: as §2

U87MG = assay: antiproliferative activity, solid tumor cell line; format: cell-based; conditions: Homo sapiens, U-87 MG, Glioblastoma
Protocol: as §2

MFE296 = assay: antiproliferative activity, solid tumor cell line; format: cell-based; conditions: Homo sapiens, MFE-296; MFE296, Endometrial
Protocol: as §2

MDAMB468 = assay: antiproliferative activity, solid tumor cell line; format: cell-based; conditions: Homo sapiens, MDA-MB-468; MDAMB468, Breast
Protocol: as §2

AsPC1 = assay: antiproliferative activity, solid tumor cell line; format: cell-based; conditions: Homo sapiens; AsPC1, Pancreas
Protocol: as §2

HepG2 = assay: antiproliferative activity, solid tumor cell line; format: cell-based; conditions: Homo sapiens; HepG2, Liver
Protocol: as §2

TCCSUP = assay: antiproliferative activity, solid tumor cell line; format: cell-based; conditions: Homo sapiens, TCC-SUP, Bladder
Protocol: as §2

LoVo = assay: antiproliferative activity, solid tumor cell line; format: cell-based; conditions: Homo sapiens, Colon
Protocol: as §2

BT474 = assay: antiproliferative activity, solid tumor cell line; format: cell-based; conditions: Homo sapiens, BT-474; BT474, Breast
Protocol: as §2

J82 = assay: antiproliferative activity, solid tumor cell line; format: cell-based; conditions: Homo sapiens; J82, Bladder
Protocol: as §2

ZR75 = assay: antiproliferative activity, solid tumor cell line; format: cell-based; conditions: ZR75, Breast
Protocol: as §2

MKN1 = assay: antiproliferative activity, solid tumor cell line; format: cell-based; conditions: Homo sapiens, MKN-1; MKN1, Gastric
Protocol: as §2

H1581 = assay: antiproliferative activity, solid tumor cell line; format: cell-based; conditions: Homo sapiens, NCI-H1581; H1581, Lung
Protocol: as §2

MCF7 = assay: antiproliferative activity, solid tumor cell line; format: cell-based; conditions: Homo sapiens; MCF7, Breast
Protocol: as §2

EAhy296 = assay: antiproliferative activity, solid tumor cell line; format: cell-based; conditions: EAhy296, Endothelial
Protocol: as §2

SW780 = assay: antiproliferative activity, solid tumor cell line; format: cell-based; conditions: Homo sapiens; SW780, Bladder
Protocol: as §2

CFPac1 = assay: antiproliferative activity, solid tumor cell line; format: cell-based; conditions: Homo sapiens, CFPAC-1; CFPac1, Pancreas
Protocol: as §2

[6] = tested on: DLBCL xenograft derived from Pfeiffer cell line; assay: DLBCL xenograft mouse model (Pfeiffer); format: in vivo; conditions: Pfeiffer cell line (FIG. 3)
[7] = tested on: hematological malignant cell lines (leukemia, lymphoma, multiple myelomas); assay: antiproliferative activity, hematological malignant cell line panel; format: cell-based; conditions: cell line panel representing leukemia, multiple myelomas (FIG. 2)
[8] = tested on: Pfeiffer (DLBCL cell line); assay: caspase 3/7 apoptosis assay; format: cell-based; conditions: Homo sapiens, 24-hour treatment (FIG. 1), read-out: EC50, induced apoptosis (caspase 3/7 assay)

## C=CC(=O)N1CCC[C@@H](n2nc(-c3ccc(Oc4ccccc4)cc3)c3c(N)ncnc32)C1 [Ibrutinib, ibrutinib]
[1]
  IC50: 4500 nM
[2]
  IC50: 270 nM

## N#CCC1CCN(c2nc(Nc3ccc(N4CCC(O)CC4)cc3)c3c(=O)[nH]ncc3n2)CC1 [ASN002, 2-(1-(4-((4-(4-hydroxypiperidin-1-yl)phenyl)amino)-5-oxo-5,6-dihydropyrimido[4,5-d]pyridazin-2-yl)piperidin-4-yl)acetonitrile]
[3]
  tumor growth: inhibited tumor growth
[4]
  tumor growth: inhibited tumor growth
[1]
  IC50: 320 nM
[5]
  hind limb paralysis: delayed the hind limb paralysis
MDAMB453
  IC50: 1740 nM
T24
  IC50: 440 nM
SKMEL2
  IC50: 1030 nM
HeLa
  IC50: 770 nM
HCC1954
  IC50: > 10000 nM
HT1376
  IC50: 90 nM
HCC1806
  IC50: 1630 nM
SCaBER
  IC50: 450 nM
H1975
  IC50: 850 nM
HUG1N
  IC50: 810 nM
A375
  IC50: 610 nM
MIAPACA2
  IC50: 2770 nM
Colo205
  IC50: 610 nM
SW480
  IC50: 600 nM
H1299
  IC50: > 10000 nM
HT29
  IC50: 300 nM
Y79
  IC50: > 10000 nM
MDAMB361
  IC50: 490 nM
SKHEP1
  IC50: > 10000 nM
Hec1A
  IC50: 660 nM
SKOV3
  IC50: 730 nM
A549
  IC50: 460 nM
PC3
  IC50: 1980 nM
HCT116
  IC50: 430 nM
MFM-223
  IC50: 400 nM
Caki1
  IC50: 330 nM
BxPC3
  IC50: 660 nM
C33A
  IC50: 500 nM
JEG3
  IC50: > 10000 nM
DU145
  IC50: 990 nM
BT20
  IC50: 2130 nM
HT1197
  IC50: 540 nM
KE39
  IC50: 860 nM
SW1990
  IC50: 1620 nM
HCC1937
  IC50: > 10000 nM
5637
  IC50: 420 nM
H460
  IC50: 910 nM
SKMEL28
  IC50: > 10000 nM
MDA-MB-231
  IC50: 770 nM
LNCaP
  IC50: 1070 nM
CAOV3
  IC50: 420 nM
UMUC3
  IC50: 2280 nM
U87MG
  IC50: > 10000 nM
MFE296
  IC50: 880 nM
MDAMB468
  IC50: 1460 nM
AsPC1
  IC50: 840 nM
HepG2
  IC50: 240 nM
TCCSUP
  IC50: 340 nM
LoVo
  IC50: 150 nM
BT474
  IC50: > 10000 nM
J82
  IC50: 2750 nM
ZR75
  IC50: 420 nM
MKN1
  IC50: 880 nM
H1581
  IC50: 380 nM
MCF7
  IC50: 600 nM
EAhy296
  IC50: 1800 nM
SW780
  IC50: > 10000 nM
CFPac1
  IC50: 850 nM
[2]
  IC50: 80 nM
[6]
  tumor growth: inhibited tumor growth
[7]
  antiproliferative activity: strong antiproliferative activity
[8]
  EC50: 120 nM

## CC[C@H](Nc1ncnc2[nH]cnc12)c1nc2cccc(F)c2c(=O)n1-c1ccccc1 [Idelalisib, idelalisib]
[1]
  IC50: > 10000 nM
[2]
  IC50: 130 nM
